Laboratory results from ChEMBL document CHEMBL1201862, “PubChem BioAssay data set” (2004).
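Five compound concentrations were applied to cells in 96-well plates for 48 hours; endpoints were derived by simple linear interpolation of the resulting dose-response curve. GI50 is the concentration that inhibits growth by half.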 Activity calls are given as the source filed them. No stated cut-off is given here; in the data, active = GI50 up to about 1.1 µM and inactive = higher.

What was measured:
Assay in all cases: inhibition of tumour cell growth, NCI panel, 48 h
HOP-92 = test system: HOP-92
NCI-H23 = test system: NCI-H23
SK-OV-3 = test system: SK-OV-3
TK-10 = test system: TK-10
ACHN = test system: ACHN
HCC 2998 = test system: HCC 2998
UACC-257 = test system: UACC-257
SF-295 = test system: SF-295
OVCAR-4 = test system: OVCAR-4
U-251 = test system: U-251
SR = test system: SR
K562 = test system: K562
BT-549 = test system: BT-549
MDA-N = test system: MDA-N
HOP-62 = test system: HOP-62
MCF7 = test system: MCF7
CCRF-CEM = test system: CCRF-CEM
OVCAR-3 = test system: OVCAR-3
DU-145 = test system: DU-145

Row | SMILES | GI50 (HOP-92) | GI50 (NCI-H23) | GI50 (SK-OV-3) | GI50 (TK-10) | GI50 (ACHN) | GI50 (HCC 2998) | GI50 (UACC-257) | GI50 (SF-295) | GI50 (OVCAR-4) | GI50 (U-251) | GI50 (SR) | GI50 (K562) | GI50 (BT-549) | GI50 (MDA-N) | GI50 (HOP-62) | GI50 (MCF7) | GI50 (CCRF-CEM) | GI50 (OVCAR-3) | GI50 (DU-145)
1 | C=CCOC(=O)C[C@H](NC(=O)[C@H](Cc1ccc(O)cc1)NCC(F)(F)F)C(=O)OCC=C | > 100 µM (inactive) | 37.5 µM (inactive) | > 100 µM (inactive) | > 100 µM (inactive) | > 100 µM (inactive) | 83.4 µM (inactive) | 20.8 µM (inactive) | > 100 µM (inactive) | > 100 µM (inactive) | > 100 µM (inactive) | 34 µM (inactive) | 39.2 µM (inactive) | > 100 µM (inactive) | 35.3 µM (inactive) | > 100 µM (inactive) | 53.8 µM (inactive) | – | – | –
2 | CC1=CC(=O)/C(=C/NC(N)=S)C(=O)O1 | 15.3 µM (inactive) | > 100 µM (inactive) | 43.2 µM (inactive) | 10.1 µM (inactive) | > 100 µM (inactive) | > 100 µM (inactive) | > 100 µM (inactive) | > 100 µM (inactive) | > 100 µM (inactive) | > 100 µM (inactive) | – | – | > 100 µM (inactive) | > 100 µM (inactive) | 97.5 µM (inactive) | > 100 µM (inactive) | 28.2 µM (inactive) | > 100 µM (inactive) | > 100 µM (inactive)
3 | O=C1/C(=C/c2cccc([N+](=O)[O-])c2)Sc2scc(-c3ccc([N+](=O)[O-])cc3)[n+]21 | 24.5 µM (inactive) | 15.2 µM (inactive) | 69.5 µM (inactive) | – | 19.8 µM (inactive) | 16.4 µM (inactive) | 21.8 µM (inactive) | 14.8 µM (inactive) | 30.4 µM (inactive) | 27.2 µM (inactive) | – | – | 11.6 µM (inactive) | 24.5 µM (inactive) | 16.6 µM (inactive) | 24.7 µM (inactive) | – | 31.6 µM (inactive) | 35.2 µM (inactive)
4 | O=C1/C(=C/c2ccc(O)cc2)CCC1CNc1ccccc1 (centres undefined) | 14.4 µM (inactive) | 14.3 µM (inactive) | 22.5 µM (inactive) | 10.2 µM (inactive) | 12.3 µM (inactive) | 18.8 µM (inactive) | 16.7 µM (inactive) | 15.9 µM (inactive) | 19.1 µM (inactive) | 16.4 µM (inactive) | 1.74 µM (inactive) | 1.5 µM (inactive) | 14.5 µM (inactive) | – | 18.3 µM (inactive) | 2.25 µM (inactive) | 1.61 µM (inactive) | 14.6 µM (inactive) | 12.3 µM (inactive)
5 | O=C(O)Cc1ccc(Nc2nc3cc(C(F)(F)F)ccc3nc2C(=O)O)cc1 | > 100 µM (inactive) | > 100 µM (inactive) | > 100 µM (inactive) | > 100 µM (inactive) | > 100 µM (inactive) | – | > 100 µM (inactive) | > 100 µM (inactive) | > 100 µM (inactive) | > 100 µM (inactive) | < 0.01 µM (active) | – | > 100 µM (inactive) | > 100 µM (inactive) | > 100 µM (inactive) | > 100 µM (inactive) | – | > 100 µM (inactive) | > 100 µM (inactive)
6 | COc1ccc2c(c1O)-c1c(OC)c(OC)cc3c1[C@H](C2)[N+](C)(C)CC3 | 13.2 µM (inactive) | > 100 µM (inactive) | > 100 µM (inactive) | > 100 µM (inactive) | > 100 µM (inactive) | > 100 µM (inactive) | > 100 µM (inactive) | > 100 µM (inactive) | > 100 µM (inactive) | > 100 µM (inactive) | – | 0.0409 µM (active) | > 100 µM (inactive) | > 100 µM (inactive) | – | > 100 µM (inactive) | > 100 µM (inactive) | > 100 µM (inactive) | > 100 µM (inactive)
7 | Nc1nc(O)c(Br)c(-c2cccc([N+](=O)[O-])c2)n1 | > 76 µM (inactive) | 40.9 µM (inactive) | > 61.9 µM (inactive) | > 100 µM (inactive) | > 67.9 µM (inactive) | > 100 µM (inactive) | > 55 µM (inactive) | > 50.4 µM (inactive) | > 100 µM (inactive) | > 100 µM (inactive) | 64 µM (inactive) | > 91.4 µM (inactive) | 38.6 µM (inactive) | – | > 100 µM (inactive) | > 49.2 µM (inactive) | > 100 µM (inactive) | > 100 µM (inactive) | > 100 µM (inactive)
8 | CCSc1nc(-c2cccs2)nc2ccc(I)cc12 | – | > 100 µM (inactive) | – | 39.6 µM (inactive) | > 100 µM (inactive) | > 100 µM (inactive) | > 100 µM (inactive) | > 100 µM (inactive) | > 100 µM (inactive) | > 100 µM (inactive) | > 100 µM (inactive) | > 100 µM (inactive) | > 100 µM (inactive) | > 100 µM (inactive) | > 100 µM (inactive) | 13.1 µM (inactive) | > 100 µM (inactive) | 11.2 µM (inactive) | > 100 µM (inactive)
